# Data from the NIST ThermoML archive (doi:10.1021/je700460w).
# ± gives the expanded uncertainty stated by the source.
# How the values were obtained:
# [1] = 303.15 K; 101 kPa; Liquid
# [2] = xn = mol fraction of the nth substance listed; conditions: 303.15 K, 101 kPa, Liquid
compound,measurement,setting,value
"CC(C)CC(C)(C)C [2,2,4-trimethylpentane]",mass density,[1],683.74 ± 0.43 kg/m3
"CC(C)CC(C)(C)C [2,2,4-trimethylpentane] + CC(C)OC(C)C",mass density,[2]; x2 = 0,683.74 ± 0.43 kg/m3
"CC(C)CC(C)(C)C [2,2,4-trimethylpentane] + CCCO",mass density,[2]; x2 = 0,683.74 ± 0.43 kg/m3
same,mass density,[2]; x2 = 0.0484,685.75 ± 0.43 kg/m3
same,mass density,[2]; x2 = 0.0993,688.26 ± 0.43 kg/m3
same,mass density,[2]; x2 = 0.2038,694.24 ± 0.42 kg/m3
same,mass density,[2]; x2 = 0.2983,700.64 ± 0.42 kg/m3
same,mass density,[2]; x2 = 0.4,708.63 ± 0.41 kg/m3
same,mass density,[2]; x2 = 0.5007,717.82 ± 0.41 kg/m3
same,mass density,[2]; x2 = 0.5989,728.33 ± 0.4 kg/m3
same,mass density,[2]; x2 = 0.6995,741.12 ± 0.39 kg/m3
same,mass density,[2]; x2 = 0.7998,756.21 ± 0.38 kg/m3
same,mass density,[2]; x2 = 0.8984,774.29 ± 0.36 kg/m3
same,mass density,[2]; x2 = 0.9502,785.01 ± 0.35 kg/m3
CC(C)OC(C)C [diisopropyl ether],mass density,[1],713.51 ± 0.76 kg/m3
CC(C)OC(C)C [diisopropyl ether] + CC(C)CC(C)(C)C,mass density,[2]; x1 = 0.0504,684.87 ± 0.43 kg/m3
same,mass density,[2]; x1 = 0.102,686.03 ± 0.43 kg/m3
same,mass density,[2]; x1 = 0.1985,688.29 ± 0.43 kg/m3
same,mass density,[2]; x1 = 0.301,690.84 ± 0.43 kg/m3
same,mass density,[2]; x1 = 0.3996,693.42 ± 0.43 kg/m3
same,mass density,[2]; x1 = 0.5002,696.27 ± 0.42 kg/m3
same,mass density,[2]; x1 = 0.6002,699.34 ± 0.42 kg/m3
same,mass density,[2]; x1 = 0.7009,702.6 ± 0.42 kg/m3
same,mass density,[2]; x1 = 0.7849,705.55 ± 0.41 kg/m3
same,mass density,[2]; x1 = 0.9013,709.78 ± 0.41 kg/m3
same,mass density,[2]; x1 = 0.9512,711.68 ± 0.41 kg/m3
same,mass density,[2]; x1 = 1,713.51 ± 0.41 kg/m3
CC(C)OC(C)C [diisopropyl ether] + CCCO,mass density,[2]; x1 = 0.0504,790.59 ± 0.61 kg/m3
same,mass density,[2]; x1 = 0.0991,785.96 ± 0.62 kg/m3
same,mass density,[2]; x1 = 0.2001,775.66 ± 0.64 kg/m3
same,mass density,[2]; x1 = 0.2994,766.52 ± 0.66 kg/m3
same,mass density,[2]; x1 = 0.4,757.67 ± 0.68 kg/m3
same,mass density,[2]; x1 = 0.5018,749.3 ± 0.69 kg/m3
same,mass density,[2]; x1 = 0.6006,741.73 ± 0.71 kg/m3
same,mass density,[2]; x1 = 0.6995,734.54 ± 0.72 kg/m3
same,mass density,[2]; x1 = 0.7994,727.46 ± 0.73 kg/m3
same,mass density,[2]; x1 = 0.8981,720.72 ± 0.75 kg/m3
same,mass density,[2]; x1 = 0.9498,717.2 ± 0.75 kg/m3
same,mass density,[2]; x1 = 1,713.51 ± 0.76 kg/m3
CCCO [propan-1-ol],mass density,[1],796.55 ± 0.6 kg/m3
CCCO [propan-1-ol] + CC(C)CC(C)(C)C,mass density,[2]; x1 = 1,796.55 ± 0.34 kg/m3
CCCO [propan-1-ol] + CC(C)OC(C)C,mass density,[2]; x2 = 0,796.55 ± 0.6 kg/m3
